This assay concerns serum calcium concentration. Description: Biological assay of calcitonin analogs in vivo: reduction of serum calcium concentration vs synthetic salmon calcitonin standard. The arrangement: species or system Rats. Here is the method:
Biological Assay Of Calcitonin Analogs In Vivo
The biological potency of [S-Acm-Cys',Ala^7 ]salmon calcitonin was determined by comparing the reduction of serum calcium concentration which followed administration by graded doses of [S-Acm-Cys^1,Ala^7 ]SCT and synthetic salmon calcitonin standard. Rats were divided into four groups of seven animals, and each group was assigned at random to a dose of standard or test solution. Low and high doses were chosen from the linear portion of the dose-response curve. For the salmon calcitonin standard, the values were 0.7 and 2.1 mcg. peptide/100 g. body weight (BW). This dose approximates 3 and 9 MU/100 g. BW. Peptides were given by subcutaneous injection (0.2 ml/100 g. BW) and blood was withdrawn 1 hour later for serum calcium determination. Sera are processed and analyzed within two hours of collection. […]. Results were analyzed by a 2×2 parallel line assay [Gaddum, J. H., J. Pharm. Pharmacol., 6, 345 (1953)]. The standard salmon calcitonin used was independently determined to contain greater than 4,000 IU/mg. [S-Acm-Cys^1,Ala^7 ]SCT assayed at 6300 IU/mg, (95% 5800-6900).

Turning to Salmon calcitonin, the “biological potency of the standard (independently determined content)” value (standard salmon calcitonin used in the assay, independently determined) is given as “greater than 4,000 IU/mg”.
Turning to “[S-Acm-Cys^1,Ala^7)]salmon calcitonin [[S-Acm-Cys^1,Ala^7]SCT]”, for the setting “rats, subcutaneous injection, serum calcium 1 hour later, 2×2 parallel line assay vs salmon calcitonin standard, 95% 5800-6900”, the biological potency was 6300 IU/mg.

The record behind these values is patent US4639510A, “(1-S-acetamidomethyl cysteine, 7-alanine)calcitonin” (Armour Pharmaceutical Company, priority 1985, dated 1987).
